Measured values published in article PMC9538480, “Rutin bioconjugates as potential nutraceutical prodrugs: An in vitro and in ovo toxicological screening” (Frontiers in Pharmacology, 2022).

Legend:
[1] = test system: HaCaT cells; format: cell-based, human; details: 24 h
Experimental: (§1) To evaluate the in vitro effect of rutin esters (REs) on cells’ viability, the MTT technique was applied following a 24 h treatment of H9c2(2-1), HepaRG, and HaCaT cells with RUT-O and RUT-L (1, 10, 25, 50, and 100 µM). The parent compounds (PCs)—RUT, OA, and LA were also tested. DMSO was used as solvent for all test compounds (RUT, OA, LA, RUT-O, and RUT-L). The impact of DMSO at tested concentrations (1, 10, 25, 50, and 100 µM) was also assessed in vitro. At the end of the treatment, fresh media (100 µl) and the MTT reagent (10 µl) were added in each well, and the plates were incubated for 3 h at 37°C. The final steps were as follows: addition of the solubilization solution (100 µl/well), incubation of the plates at room temperature for 30 min, protected from light, and absorbance measurement at two wavelengths (570 and 630 nm) using Cytation 5 (BioTek Instruments Inc., Winooski, VT, United States). The results were expressed as percentage (%) of viable cells normalized to control cells (unstimulated cells).

[2] = test system: H9c2(2-1) cells; format: cell-based, rat; details: 100 µM, 24 h, Hoechst 33342
Experimental: (§2) The potential toxicity of 100 μM RUT, OA, LA, RUT-O, and RUT-L at nuclear level was tested by applying the Hoechst 33342 staining assay protocol according to the manufacturer’s (Thermo Fisher Scientific, Inc., Waltham, MA, United States) recommendations. In brief, H9c2(2-1), HepaRG, and HaCaT cells were seeded in 12-well plates (10^5 cells/1.5 ml/well) and treated with the test compounds for 24 h. After the stimulation period, the media was removed, and the staining solution diluted 1:2000 in PBS was added (500 µl/well). The plates were incubated for 10 min at room temperature, protected from light. Finally, the staining solution was washed with PBS and the pictures were taken using Cytation 1 (BioTek Instruments Inc., Winooski, VT, United States) and analyzed by the means of Gen5™ Microplate Data Collection and Analysis Software (BioTek Instruments Inc., Winooski, VT, United States). Staurosporine (STP) 5 µM was selected as positive control for apoptosis.

[3] = test system: reconstructed human epidermis 3D tissues—EpiDerm™ (EPI-212); details: for tissue viability compared to negative control (DPBS-treated inserts) / skin irritation classification (OECD Test Guideline 439, irritant if viability below 50%): 100 µM; for skin irritation classification (OECD Test Guideline 439, irritant if viability below 50%): EpiDerm
Description: The reconstructed human epidermal model—EpiDerm™ (EPI-212, [MatTek Corporation protocol, 2021], Bratislava, Slovakia) (Lot no. 36155) is a multilayered differentiated human epidermis model made of normal human-derived epidermal keratinocytes, validated as test method for the OECD 439 (In vitro skin irritation: reconstructed human epidermis test methods) ([OECD, 2021]). The EpiDerm™ tissues (prepared as inserts) that served as model for the skin irritation test together with the specific culture media (assay medium—EPI-100-NMM), Dulbecco’s phosphate buffered saline (DPBS) (negative control), sodium dodecyl sulphate (SDS) 5% and the MTT kit were provided by the manufacturer (MatTek Corporation, Bratislava, Slovakia).
The in vitro skin irritation test (EPI-212-SIT) was performed according to the manufacturer’s recommendations and to the data from the literature [MatTek Corporation protocol—In vitro EpiDerm Skin Irritation Test (EPI-200-SIT); [Kandarova et al., 2018]]. […] The same protocol was performed for the positive (5% SDS in saline) and negative (sterile DPBS) controls. The tissue viability (%) was calculated according to the formulas specified in the literature ([Pinzaru et al., 2021]).

[4] = test system: H9c2(2-1), HaCaT, and HepaRG cells; format: cell-based; details: 100 µM, 24 h; for round cells floating in the culture medium: bright field; for impact on cells' adherence or confluency: compared to control cells
Experimental: To verify the impact of PCs (RUT, OA and LA) and REs (RUT-O and RUT-L) on the morphology and confluence of H9c2(2-1), HaCaT, and HepaRG cells, a microscopic examination was performed. The cells were observed under bright field illumination and photographed at the end of the 24 h treatment period using Cytation 1 (BioTek Instruments Inc., Winooski, VT, United States). The photographs were processed using the Gen5™ Microplate Data Collection and Analysis Software (BioTek Instruments Inc., Winooski, VT, United States).

[5] = test system: H9c2(2-1) cells; experiment: in vitro; format: cell-based, rat; details: H9c2(2-1), 24 h; for cell viability normalized to control: MTT
Experimental: as §1

[6] = test system: chorioallantoic membrane; experiment: HET-CAM in ovo irritant potential; format: in vivo, Gallus domesticus; details: for vascular irritation signs (hemorrhage, lysis, coagulation) in words: 5 min after application; for tC = time of coagulation / tH = time of hemorrage / tL = time of lysis / Irritation score (IS): test compounds 100 µM, 5 min observation; for Irritation score (IS): 600 μl
Experimental: To perform a toxicological screening and to verify the irritant potential of the RUT-O and RUT-L were used chicken eggs (Gallus domesticus). Specifically, the eggs were prepared as follows: 1) after being washed and disinfected with 70% ethanol (v/v), the eggs were placed in an incubator in a horizontal posture; 2) on the fourth day of incubation, a small hole was made through which a volume of approximately 7–8 ml of albumen was extracted in order to facilitate the detachment of the chorioallantoic membrane from the inner shell of the egg; 3) on the fifth day of incubation, a window was cut in the upper part of the egg to allow the visualization of the blood vessels, which was then covered with adhesive tape and the eggs were placed in the incubator until the day of the beginning of the experiment. Using the Hen’s Egg Test—Chorioallantoic Membrane (HET-CAM) assay, the potential in ovo toxicity of the samples was evaluated. […] [Kis et al., 2022]). […] In order to observe any vascular effects, a stereomicroscope (Discovery 8 Stereomicroscope Zeiss, Göttingen, and Germany) was used, and images were taken with a Zeiss Axio CAM 105 color camera before and 5 min after the application of the samples. The same experimental protocol was applied for the parent compounds—RUT, OA, and LA.

[7] = test system: HepaRG cells; experiment: in vitro; format: cell-based, human; details: 100 µM
Experimental: as §1

[8] = test system: HaCaT cells; format: cell-based, human; details: 100 µM, 24 h, Hoechst 33342
Experimental: as §2

[9] = test system: HepaRG cells; format: cell-based, human; details: 100 µM, 24 h, Hoechst 33342
Experimental: as §2

[10] = test system: HepaRG cells; experiment: Wound healing (scratch) assay; format: cell-based, human; details: 25 µM, 24 h, control 44.31%
Experimental: The influence of RUT-O and RUT-L on the migration of cells was assessed by performing the wound healing (scratch) assay. In brief, the cells (10^5 cells/ml/well) were cultured in 24-well plates (Corning Costar), and an automatic scratch was made in each well by using the AutoScratchTM Wound Making Tool provided by BioTek® Instruments Inc. (Winooski, VT, United States). The cells were further treated with the flavonoid esters at the concentration of 25 μM for 24 h, and representative images of the wound area were taken at 0 and 24 h using Cytation 1 (BioTek® Instruments Inc., Winooski, VT, United States). The wound widths were measured using Gen5 TM Microplate Data Collection and Analysis Software (BioTek® Instruments Inc., Winooski, VT, United States). The effects on cell migration were quantified by calculating the wound healing rates (%) using a formula presented in our previous studies ([[…] et al., 2020]).

[11] = in vitro; format: cell-based, rat; details: rat
Experimental: as §1

[12] = test system: HUVEC endothelial cells; details: ref Bass et al., 2020; cited from earlier work
[13] = in vitro; format: cell-based, human; details: human
Experimental: as §1

SMILES	nuclear morphology changes [2]	tissue viability compared to negative control (DPBS-treated inserts) ([3]; EpiDerm inserts)	skin irritation classification (OECD Test Guideline 439, irritant if viability below 50%) [3]	round cells floating in the culture medium [4]	impact on cells' adherence or confluency [4]	vascular irritation signs (hemorrhage, lysis, coagulation) in words [6]	tC = time of coagulation [6]	tH = time of hemorrage [6]	tL = time of lysis [6]	Irritation score (IS) [6]	nuclear morphology changes [8]	nuclear morphology changes [9]	wound healing rate [10]	other results
CCCCCCCC/C=C\CCCCCCCC(=O)OC1C(C)OC(OCC2OC(Oc3c(-c4ccc(O)c(O)c4)oc4cc(O)cc(O)c4c3=O)C(O)C(O)C2O)C(O)C1O (stereo not shown) [RUT-O, rutin oleate]	several apoptotic-like features	over 100%	non-irritant	several round cells floating in the culture medium	no negative impact	no significant irritant effects	286 s	300 s	291 s	0.70	nuclear fragmentation and formation of apoptotic bodies	chromatin condensation	27.18%	cell viability normalized to control ([1]; 100 µM, MTT): 78.32%; cell viability normalized to control ([5]; 50 µM): 79.03%; cell viability normalized to control ([5]; 100 µM): 77.53%; cell viability normalized to control ([7]; HepaRG, 24 h, MTT): 83.17%
CCCCCCCC/C=C\CCCCCCCC(=O)O [OA, oleic acid]	no significant nuclear alterations	–	–	several round cells floating in the culture medium	no negative impact	No signs of vascular irritation	–	–	–	–	no significant nuclear alterations	no significant nuclear alterations	–	viability at 24 h, 50 µM [11]: 89.8%; viability at 24 h, 100 µM [11]: 82.9%; doses inducing cytotoxicity in HUVEC endothelial cells [12]: above 200 µM; viability at 24 h, 50 µM [13]: 87.9%; viability at 24 h, 100 µM [13]: 76.4%
CCCCC/C=C\C/C=C\CCCCCCCC(=O)O[C@@H]1[C@@H](O)[C@@H](O)[C@H](OC[C@H]2O[C@@H](Oc3c(-c4ccc(O)c(O)c4)oc4cc(O)cc(O)c4c3=O)[C@H](O)[C@@H](O)[C@@H]2O)O[C@H]1C [RUT-L, rutin linoleate]	No significant changes	over 100%	non-irritant	–	no negative impact	no significant irritant effects	290 s	300 s	295 s	0.49	No significant changes	No significant changes	22.77%	effect on cell viability ([1]; 1-100 µM): stimulatory effect at all concentrations; effect on cell viability ([5]; lowest concentrations (1 and 10 µM)): stimulatory effect; cell viability normalized to control [7]: 101.25%
CCCCCCCCCCCCOS(=O)(=O)[O-].[Na+] [SDS 1%, sodium dodecyl sulphate]	–	–	–	–	–	the most obvious signs of vascular irritation	15 s	22 s	20 s	19.78	–	–	–	tissue viability ([3]; EpiDerm inserts, positive control 5% solution): 10%
